Test results taken from patent US20120220562A1, “Anti-Viral Compounds” (ABBOTT LABAORATORIES, priority 2011, published 2012).

The molecules below were run on HCV 1b-Con1 replicon (assay: HCV 1b-Con1 replicon assay in the presence of 5% FBS). Conditions: Hepatitis C virus.
Assay type: cell-based

| SMILES | EC50 [nM] |
| --- | --- |
| COC(=O)N[C@H](C(=O)N1CCC[C@H]1c1nc2cc([C@H]3CC[C@H](c4ccc5[nH]c([C@@H]6CCCN6C(=O)[C@@H](NC(=O)OC)C(C)C)nc5c4)N3c3cc(F)c(N4CCC5(CCCCC5)CC4)c(F)c3)ccc2[nH]1)C(C)C [Example 5.12, methyl {(2S)-1-[(2S)-2-{5-[(2R,5R)-1-[4-(3-azaspiro[5.5]undec-3-yl)-3,5-difluorophenyl]-5-{2-[(2S)-1-{(2S)-2-[(methoxycarbonyl)amino]-3-methylbutanoyl}pyrrolidin-2-yl]-1H-benzimidazol-5-yl}pyrrolidin-2-yl]-1H-benzimidazol-2-yl}pyrrolidin-1-yl]-3-methyl-1-oxobutan-2-yl}carbamate] | < 0.1 |
| COC(=O)N[C@H](C(=O)N1CCC[C@H]1c1nc2cc([C@H]3CC[C@H](c4ccc5[nH]c([C@@H]6CCCN6C(=O)[C@@H](NC(=O)OC)C(C)C)nc5c4)N3c3cc(F)c(N4Cc5ccccc5C4)c(F)c3)ccc2[nH]1)C(C)C [Example 5.13, methyl {(2S)-1-[(2S)-2-{5-[(2R,5R)-1-[4-(1,3-dihydro-2H-isoindol-2-yl)-3,5-difluorophenyl]-5-{2-[(2S)-1-{(2S)-2-[(methoxycarbonyl)amino]-3-methylbutanoyl}pyrrolidin-2-yl]-1H-benzimidazol-5-yl}pyrrolidin-2-yl]-1H-benzimidazol-2-yl}pyrrolidin-1-yl]-3-methyl-1-oxobutan-2-yl}carbamate] | < 0.1 |
| COC(=O)N[C@H](C(=O)N1CCC[C@H]1c1nc2cc([C@H]3CC[C@H](c4ccc5[nH]c([C@@H]6CCCN6C(=O)[C@@H](NC(=O)OC)C(C)C)nc5c4)N3c3cc(F)c(N4CCC5(CC4)OCCO5)c(F)c3)ccc2[nH]1)C(C)C [Example 5.14] | < 0.1 |
| COC(=O)N[C@H](C(=O)N1CCC[C@H]1c1nc2cc([C@H]3CC[C@H](c4ccc5[nH]c([C@@H]6CCCN6C(=O)[C@@H](NC(=O)OC)C(C)C)nc5c4)N3c3cc(F)c(N4CC=C(c5ccccc5)CC4)c(F)c3)ccc2[nH]1)C(C)C [Example 5.15, methyl {(2S)-1-[(2S)-2-{5-[(2R,5R)-1-[3,5-difluoro-4-(4-phenyl-3,6-dihydropyridin-1(2H)-yl)phenyl]-5-{2-[(2S)-1-{(2S)-2-[(methoxycarbonyl)amino]-3-methylbutanoyl}pyrrolidin-2-yl]-1H-benzimidazol-5-yl}pyrrolidin-2-yl]-1H-benzimidazol-2-yl}pyrrolidin-1-yl]-3-methyl-1-oxobutan-2-yl}carbamate] | < 0.1 |
| COC(=O)N[C@H](C(=O)N1CCC[C@H]1c1nc2cc([C@H]3CC[C@@H](c4cc5[nH]c([C@@H]6CCCN6C(=O)[C@@H](NC(=O)OC)C(C)C)nc5cc4F)N3c3ccc(C(C)(C)C)cc3)c(F)cc2[nH]1)C(C)C [Example 6.2, methyl {(2S)-1-[(2S)-2-{5-[(2R,5S)-1-(4-tert-butylphenyl)-5-{5-fluoro-2-[(2S)-1-(2S)-2-[(methoxycarbonyl)amino]-3-methylbutanoylpyrrolidin-2-yl]-1H-benzimidazol-6-yl}pyrrolidin-2-yl]-6-fluoro-1H-benzimidazol-2-yl}pyrrolidin-1-yl]-3-methyl-1-oxobutan-2-yl}carbamate] | < 0.1 |
| COC(=O)N[C@H](C(=O)N1CCC[C@H]1c1nc2c(F)c([C@H]3CC[C@H](c4ccc5nc([C@@H]6CCCN6C(=O)[C@@H](NC(=O)OC)C(C)C)[nH]c5c4F)N3c3ccc(C(C)(C)C)cc3)ccc2[nH]1)C(C)C [Example 6.3, methyl {(2S)-1-[(2S)-2-{5-[(2R,5R)-1-(4-tert-butylphenyl)-5-{7-fluoro-2-[(2S)-1-{(2S)-2-[(methoxycarbonyl)amino]-3-methylbutanoyl}pyrrolidin-2-yl]-1H-benzimidazol-6-yl}pyrrolidin-2-yl]-4-fluoro-1H-benzimidazol-2-yl}pyrrolidin-1-yl]-3-methyl-1-oxobutan-2-yl}carbamate] | < 0.1 |
| COC(=O)N[C@H](C(=O)N1CCC[C@H]1c1nc2c(F)c([C@H]3CC[C@@H](c4ccc5nc([C@@H]6CCCN6C(=O)[C@@H](NC(=O)OC)C(C)C)[nH]c5c4F)N3c3ccc(C(C)(C)C)cc3)ccc2[nH]1)C(C)C [Example 6.4, methyl {(2S)-1-[(2S)-2-{5-[(2R,5S)-1-(4-tert-butylphenyl)-5-{7-fluoro-2-[(2S)-1-{(2S)-2-[(methoxycarbonyl)amino]-3-methylbutanoyl}pyrrolidin-2-yl]-1H-benzimidazol-6-yl}pyrrolidin-2-yl]-4-fluoro-1H-benzimidazol-2-yl}pyrrolidin-1-yl]-3-methyl-1-oxobutan-2-yl}carbamate] | < 0.1 |
| COC(=O)N[C@H](C(=O)N1CCC[C@H]1c1nc2c(Cl)c([C@H]3CC[C@H](c4ccc5[nH]c([C@@H]6CCCN6C(=O)[C@@H](NC(=O)OC)C(C)C)nc5c4Cl)N3c3ccc(C(C)(C)C)cc3)ccc2[nH]1)C(C)C [Example 6.5, methyl {(2S)-1-[(2S)-2-{5-[(2R,5R)-1-(4-tert-butylphenyl)-5-{4-chloro-2-[(2S)-1-{(2S)-2-[(methoxycarbonyl)amino]-3-methylbutanoyl}pyrrolidin-2-yl]-1H-benzimidazol-5-yl}pyrrolidin-2-yl]-4-chloro-1H-benzimidazol-2-yl}pyrrolidin-1-yl]-3-methyl-1-oxobutan-2-yl}carbamate] | < 0.1 |
| COC(=O)N[C@H](C(=O)N1CCC[C@H]1c1nc2c(Cl)c([C@H]3CC[C@@H](c4ccc5[nH]c([C@@H]6CCCN6C(=O)[C@@H](NC(=O)OC)C(C)C)nc5c4Cl)N3c3ccc(C(C)(C)C)cc3)ccc2[nH]1)C(C)C [Example 6.6, methyl {(2S)-1-[(2S)-2-{5-[(2R,5S)-1-(4-tert-butylphenyl)-5-{4-chloro-2-[(2S)-1-{(2S)-2-[(methoxycarbonyl)amino]-3-methylbutanoyl}pyrrolidin-2-yl]-1H-benzimidazol-5-yl}pyrrolidin-2-yl]-4-chloro-1H-benzimidazol-2-yl}pyrrolidin-1-yl]-3-methyl-1-oxobutan-2-yl}carbamate] | < 0.1 |
| COC(=O)N[C@H](C(=O)N1CCC[C@H]1c1nc2c(C)c([C@H]3CC[C@H](c4ccc5[nH]c([C@@H]6CCCN6C(=O)[C@@H](NC(=O)OC)C(C)C)nc5c4C)N3c3ccc(C(C)(C)C)cc3)ccc2[nH]1)C(C)C [Example 6.7, methyl {(2S)-1-[(2S)-2-{5-[(2R,5R)-1-(4-tert-butylphenyl)-5-{2-[(2S)-1-{(2S)-2-[(methoxycarbonyl)amino]-3-methylbutanoyl}pyrrolidin-2-yl]-4-methyl-1H-benzimidazol-5-yl}pyrrolidin-2-yl]-4-methyl-1H-benzimidazol-2-yl}pyrrolidin-1-yl]-3-methyl-1-oxobutan-2-yl}carbamate] | < 0.1 |
| COC(=O)N[C@H](C(=O)N1CCC[C@H]1c1nc2c(C)c([C@H]3CC[C@@H](c4ccc5[nH]c([C@@H]6CCCN6C(=O)[C@@H](NC(=O)OC)C(C)C)nc5c4C)N3c3ccc(C(C)(C)C)cc3)ccc2[nH]1)C(C)C [Example 6.8, methyl {(2S)-1-[(2S)-2-{5-[(2R,5S)-1-(4-tert-butylphenyl)-5-{2-[(2S)-1-{(2S)-2-[(methoxycarbonyl)amino]-3-methylbutanoyl}pyrrolidin-2-yl]-4-methyl-1H-benzimidazol-5-yl}pyrrolidin-2-yl]-4-methyl-1H-benzimidazol-2-yl}pyrrolidin-1-yl]-3-methyl-1-oxobutan-2-yl}carbamate] | < 0.1 |
| COC(=O)N[C@H](C(=O)N1CCC[C@H]1c1nc2cc([C@H]3CC[C@H](c4cc5nc([C@@H]6CCCN6C(=O)[C@@H](NC(=O)OC)C(C)C)[nH]c5cc4F)N3c3ccc(N4CCCCC4)c(F)c3)c(F)cc2[nH]1)C(C)C [Example 6.9, methyl {(2S)-1-[(2S)-2-(6-fluoro-5-{(2R,5R)-5-{6-fluoro-2-[(2S)-1-{(2S)-2-[(methoxycarbonyl)amino]-3-methylbutanoyl}pyrrolidin-2-yl]-1H-benzimidazol-5-yl}-1-[3-fluoro-4-(piperidin-1-yl)phenyl]pyrrolidin-2-yl}-1H-benzimidazol-2-yl)pyrrolidin-1-yl]-3-methyl-1-oxobutan-2-yl}carbamate] | < 0.1 |
| COC(=O)N[C@H](C(=O)N1CCC[C@H]1c1nc2cc([C@H]3CC[C@H](c4cc5nc([C@@H]6CCCN6C(=O)[C@@H](NC(=O)OC)C(C)C)[nH]c5cc4F)N3c3cc(F)c(N4CCCCC4)c(F)c3)c(F)cc2[nH]1)C(C)C [Example 6.10, methyl {(2S)-1-[(2S)-2-{5-[(2R,5R)-1-[3,5-difluoro-4-(piperidin-1-yl)phenyl]-5-{6-fluoro-2-[(2S)-1-{(2S)-2-[(methoxycarbonyl)amino]-3-methylbutanoyl}pyrrolidin-2-yl]-1H-benzimidazol-5-yl}pyrrolidin-2-yl]-6-fluoro-1H-benzimidazol-2-yl}pyrrolidin-1-yl]-3-methyl-1-oxobutan-2-yl}carbamate] | < 0.1 |
| COC(=O)N[C@H](C(=O)N1CCC[C@H]1c1nc2cc([C@H]3CC[C@H](c4cc5nc([C@@H]6CCCN6C(=O)[C@@H](NC(=O)OC)C(C)C)[nH]c5cc4F)N3c3cc(F)c(N4CCC(c5ccccc5)CC4)c(F)c3)c(F)cc2[nH]1)C(C)C [Example 6.11, methyl {(2S)-1-[(2S)-2-{5-[(2R,5R)-1-[3,5-difluoro-4-(4-phenylpiperidin-1-yl)phenyl]-5-{6-fluoro-2-[(2S)-1-{(2S)-2-[(methoxycarbonyl)amino]-3-methylbutanoyl}pyrrolidin-2-yl]-1H-benzimidazol-5-yl}pyrrolidin-2-yl]-6-fluoro-1H-benzimidazol-2-yl}pyrrolidin-1-yl]-3-methyl-1-oxobutan-2-yl}carbamate] | < 0.1 |
| COC(=O)N[C@H](C(=O)N1CCC[C@H]1c1nc2cc([C@H]3CC[C@H](c4cc5nc([C@@H]6CCCN6C(=O)[C@@H](NC(=O)OC)C(C)C)[nH]c5cc4F)N3c3cc(F)c(N4CCC5(CC4)CC5)c(F)c3)c(F)cc2[nH]1)C(C)C [Example 6.12, methyl {(2S)-1-[(2S)-2-{5-[(2R,5R)-1-[4-(6-azaspiro[2.5]oct-6-yl)-3,5-difluorophenyl]-5-{6-fluoro-2-[(2S)-1-{(2S)-2-[(methoxycarbonyl)amino]-3-methylbutanoyl}pyrrolidin-2-yl]-1H-benzimidazol-5-yl}pyrrolidin-2-yl]-6-fluoro-1H-benzimidazol-2-yl}pyrrolidin-1-yl]-3-methyl-1-oxobutan-2-yl}carbamate] | < 0.1 |
